From PubChem BioAssay AID1745844 (Carcinogenic Potency Database (CPDB), 2022)

Tested on: rodent lifetime carcinogenesis bioassay, tumor incidence TD50
Test: carcinogenic potency in animals, long-term in vivo studies, CPDB compilation (AID 1745844)
Settings: rat, strain Fischer 344, in drinking water, study length 97 weeks

## COc1cc(-c2ccc(N=Nc3c(S(=O)(=O)O)cc4cc(S(=O)(=O)O)cc(N)c4c3O)c(OC)c2)ccc1N=Nc1c(S(=O)(=O)O)cc2cc(S(=O)(=O)O)cc(N)c2c1O
females, site: Zymbal's gland, lesion: adenoma + carcinoma, dosed 96 weeks
  TD50: 104 mg/kg/day
females, site: Zymbal's gland, lesion: adenoma, dosed 96 weeks
  TD50: 321 mg/kg/day
females, site: Zymbal's gland, lesion: carcinoma, dosed 96 weeks
  TD50: 150 mg/kg/day
females, site: any site (literature study), lesion: several types, types named in the paper, dosed 96 weeks
  TD50: 20.4 mg/kg/day
females, site: clitoral gland, lesion: adenoma + adenoma, bilateral + carcinoma + carcinoma, bilateral, dosed 96 weeks
  TD50: 46.2 mg/kg/day
females, site: clitoral gland, lesion: adenoma + adenoma, bilateral, dosed 96 weeks
  TD50: 90.1 mg/kg/day
females, site: clitoral gland, lesion: carcinoma + carcinoma, bilateral, dosed 96 weeks
  TD50: 107 mg/kg/day
females, site: colon, ascending + clitoral gland + colon + colon, descending + duodenum + jejunum + liver + multiple organs + palate + skin + tongue + uterus, lesion: adenomatous polyp + adenoma + adenoma, bilateral + carcinoma + carcinoma, bilateral + mucinous cystadenocarcinoma + adenocarcinoma + h, dosed 96 weeks
  TD50: 21.3 mg/kg/day
females, site: colon, ascending + colon + colon, descending, lesion: adenomatous polyp, dosed 96 weeks
  TD50: 491 mg/kg/day
females, site: duodenum + jejunum, lesion: mucinous cystadenocarcinoma + adenocarcinoma, dosed 96 weeks
  TD50: 997 mg/kg/day
females, site: jejunum, lesion: adenocarcinoma + mucinous cystadenocarcinoma, dosed 96 weeks
  TD50: 1180 mg/kg/day
females, site: liver, lesion: hepatocellular adenoma + hepatocellular carcinoma + neoplastic nodule, dosed 96 weeks
  TD50: 394 mg/kg/day
females, site: liver, lesion: hepatocellular carcinoma + neoplastic nodule, dosed 96 weeks
  TD50: 394 mg/kg/day
females, site: liver, lesion: neoplastic nodule, dosed 96 weeks
  TD50: 429 mg/kg/day
females, site: multiple organs, lesion: mononuclear-cell leukemia, dosed 96 weeks
  TD50: 50 mg/kg/day
females, site: palate + tongue, lesion: squamous-cell carcinoma + squamous-cell papilloma, dosed 96 weeks
  TD50: 81 mg/kg/day
females, site: palate + tongue, lesion: squamous-cell carcinoma, dosed 96 weeks
  TD50: 208 mg/kg/day
females, site: palate + tongue, lesion: squamous-cell papilloma, dosed 96 weeks
  TD50: 132 mg/kg/day
females, site: palate, lesion: squamous-cell carcinoma, dosed 96 weeks
  TD50: 456 mg/kg/day
females, site: palate, lesion: squamous-cell papilloma, dosed 96 weeks
  TD50: 157 mg/kg/day
females, site: skin, lesion: squamous-cell carcinoma + squamous-cell papilloma, dosed 96 weeks
  TD50: 158 mg/kg/day
females, site: skin, lesion: squamous-cell papilloma, dosed 96 weeks
  TD50: 174 mg/kg/day
females, site: tongue, lesion: squamous-cell carcinoma + squamous-cell papilloma, dosed 96 weeks
  TD50: 238 mg/kg/day
females, site: tongue, lesion: squamous-cell carcinoma, dosed 96 weeks
  TD50: 384 mg/kg/day
females, site: uterus, lesion: adenocarcinoma + adenoma, dosed 96 weeks
  TD50: 493 mg/kg/day
females, site: uterus, lesion: endometrial stromal polyp + endometrial stromal sarcoma, dosed 96 weeks
  TD50: 122 mg/kg/day
females, site: uterus, lesion: endometrial stromal polyp, dosed 96 weeks
  TD50: 132 mg/kg/day
males, site: Zymbal's gland, lesion: adenoma + carcinoma, dosed 97 weeks
  TD50: 89.2 mg/kg/day
males, site: Zymbal's gland, lesion: adenoma, dosed 97 weeks
  TD50: 237 mg/kg/day
males, site: Zymbal's gland, lesion: carcinoma, dosed 97 weeks
  TD50: 132 mg/kg/day
males, site: adrenal medulla, lesion: pheochromocytoma benign, bilateral + pheochromocytoma, benign, dosed 97 weeks
  TD50: 39.8 mg/kg/day
males, site: adrenal medulla, lesion: pheochromocytoma benign, bilateral + pheochromocytoma, complex + pheochromocytoma, malignant + pheochromocytoma, benign, dosed 97 weeks
  TD50: 36.6 mg/kg/day
males, site: any site (literature study), lesion: several types, types named in the paper, dosed 97 weeks
  TD50: 12 mg/kg/day
males, site: brain, medulla + cerebrum, lesion: astrocytoma, malignant, dosed 97 weeks
  TD50: 600 mg/kg/day
males, site: colon, ascending + colon + colon, descending + jejunum + liver + palate + pharynx + preputial gland + skin + tongue + Zymbal's gland, lesion: adenomatous polyp + adenocarcinoma + mucinous cystadenocarcinoma + hepatocellular carcinoma + neoplastic nodule + squamous-cell pa, dosed 97 weeks
  TD50: 11.8 mg/kg/day
males, site: colon, ascending + colon + colon, descending, lesion: adenomatous polyp + adenocarcinoma, dosed 97 weeks
  TD50: 162 mg/kg/day
males, site: colon, ascending + colon + colon, descending, lesion: adenomatous polyp, dosed 97 weeks
  TD50: 310 mg/kg/day
males, site: colon, lesion: adenocarcinoma, dosed 97 weeks
  TD50: 355 mg/kg/day
males, site: jejunum, lesion: adenocarcinoma + adenomatous polyp + mucinous cystadenocarcinoma, dosed 97 weeks
  TD50: 1630 mg/kg/day
males, site: liver, lesion: hepatocellular adenoma + hepatocellular carcinoma + neoplastic nodule, dosed 97 weeks
  TD50: 55.2 mg/kg/day
males, site: liver, lesion: hepatocellular carcinoma + neoplastic nodule, dosed 97 weeks
  TD50: 55.2 mg/kg/day
males, site: liver, lesion: hepatocellular carcinoma, dosed 97 weeks
  TD50: 375 mg/kg/day
males, site: liver, lesion: neoplastic nodule, dosed 97 weeks
  TD50: 65.3 mg/kg/day
males, site: multiple organs, lesion: mononuclear-cell leukemia, dosed 97 weeks
  TD50: 23 mg/kg/day
males, site: palate + pharynx + tongue, lesion: squamous-cell papilloma + squamous-cell carcinoma, dosed 97 weeks
  TD50: 39.3 mg/kg/day
males, site: palate + tongue, lesion: squamous-cell papilloma, dosed 97 weeks
  TD50: 43.6 mg/kg/day
males, site: palate, lesion: squamous-cell papilloma, dosed 97 weeks
  TD50: 47 mg/kg/day
males, site: pharynx + tongue, lesion: squamous-cell carcinoma, dosed 97 weeks
  TD50: 361 mg/kg/day
males, site: pharynx, lesion: squamous-cell carcinoma, dosed 97 weeks
  TD50: 466 mg/kg/day
males, site: preputial gland, lesion: adenoma + adenoma, bilateral + carcinoma + carcinoma, bilateral, dosed 97 weeks
  TD50: 55.3 mg/kg/day
males, site: preputial gland, lesion: adenoma + adenoma, bilateral, dosed 97 weeks
  TD50: 77.1 mg/kg/day
males, site: preputial gland, lesion: carcinoma + carcinoma, bilateral, dosed 97 weeks
  TD50: 207 mg/kg/day
males, site: skin, lesion: basal-cell adenoma + basal-cell carcinoma + sebaceous adenoma, dosed 97 weeks
  TD50: 18.1 mg/kg/day
males, site: skin, lesion: basal-cell adenoma + basal-cell carcinoma, dosed 97 weeks
  TD50: 19.6 mg/kg/day
males, site: skin, lesion: basal-cell adenoma, dosed 97 weeks
  TD50: 21.6 mg/kg/day
males, site: skin, lesion: basal-cell carcinoma, dosed 97 weeks
  TD50: 101 mg/kg/day
males, site: skin, lesion: keratoacanthoma, dosed 97 weeks
  TD50: 152 mg/kg/day
males, site: skin, lesion: sebaceous adenoma, dosed 97 weeks
  TD50: 108 mg/kg/day
males, site: skin, lesion: squamous-cell carcinoma + squamous-cell papilloma, dosed 97 weeks
  TD50: 51 mg/kg/day
males, site: skin, lesion: squamous-cell carcinoma, dosed 97 weeks
  TD50: 89.7 mg/kg/day
males, site: skin, lesion: squamous-cell papilloma, dosed 97 weeks
  TD50: 92.8 mg/kg/day
males, site: subcutaneous tissue, lesion: fibroma + sarcoma, dosed 97 weeks
  TD50: 131 mg/kg/day
males, site: subcutaneous tissue, lesion: fibroma, dosed 97 weeks
  TD50: 150 mg/kg/day
males, site: testis, lesion: interstitial-cell adenoma, bilateral + interstitial-cell adenoma, dosed 97 weeks
  TD50: 12.9 mg/kg/day
males, site: thyroid gland, lesion: c-cell adenoma + c-cell adenoma, bilateral, dosed 97 weeks
  TD50: 143 mg/kg/day
males, site: thyroid gland, lesion: c-cell adenoma + c-cell carcinoma, bilateral + c-cell carcinoma + c-cell adenoma, bilateral, dosed 97 weeks
  TD50: 116 mg/kg/day
males, site: thyroid gland, lesion: follicular-cell adenoma + follicular-cell carcinoma, dosed 97 weeks
  TD50: 103 mg/kg/day
males, site: thyroid gland, lesion: follicular-cell adenoma, dosed 97 weeks
  TD50: 49.7 mg/kg/day
males, site: thyroid gland, lesion: follicular-cell carcinoma, dosed 97 weeks
  TD50: 331 mg/kg/day
males, site: tongue, lesion: squamous-cell carcinoma + squamous-cell papilloma, dosed 97 weeks
  TD50: 371 mg/kg/day
